Experimental findings from ChEMBL document CHEMBL1909046, “DrugMatrix in vitro pharmacology data” are described below.

SMILES strings stand for the structures.

Assay [1] concerns the target Cytochrome P450 2C9 (Homo sapiens, UniProt P11712).
Assay [2] has as its target Voltage-gated inwardly rectifying potassium channel KCNH2 (Homo sapiens, UniProt Q12809).
Assay [3] concerns the target Cytochrome P450 2C19 (Homo sapiens, UniProt P33261).
In assay [4] the target is T1, Androgen receptor (Rattus norvegicus, UniProt P15207).
T1 sequence (P15207 whole entry): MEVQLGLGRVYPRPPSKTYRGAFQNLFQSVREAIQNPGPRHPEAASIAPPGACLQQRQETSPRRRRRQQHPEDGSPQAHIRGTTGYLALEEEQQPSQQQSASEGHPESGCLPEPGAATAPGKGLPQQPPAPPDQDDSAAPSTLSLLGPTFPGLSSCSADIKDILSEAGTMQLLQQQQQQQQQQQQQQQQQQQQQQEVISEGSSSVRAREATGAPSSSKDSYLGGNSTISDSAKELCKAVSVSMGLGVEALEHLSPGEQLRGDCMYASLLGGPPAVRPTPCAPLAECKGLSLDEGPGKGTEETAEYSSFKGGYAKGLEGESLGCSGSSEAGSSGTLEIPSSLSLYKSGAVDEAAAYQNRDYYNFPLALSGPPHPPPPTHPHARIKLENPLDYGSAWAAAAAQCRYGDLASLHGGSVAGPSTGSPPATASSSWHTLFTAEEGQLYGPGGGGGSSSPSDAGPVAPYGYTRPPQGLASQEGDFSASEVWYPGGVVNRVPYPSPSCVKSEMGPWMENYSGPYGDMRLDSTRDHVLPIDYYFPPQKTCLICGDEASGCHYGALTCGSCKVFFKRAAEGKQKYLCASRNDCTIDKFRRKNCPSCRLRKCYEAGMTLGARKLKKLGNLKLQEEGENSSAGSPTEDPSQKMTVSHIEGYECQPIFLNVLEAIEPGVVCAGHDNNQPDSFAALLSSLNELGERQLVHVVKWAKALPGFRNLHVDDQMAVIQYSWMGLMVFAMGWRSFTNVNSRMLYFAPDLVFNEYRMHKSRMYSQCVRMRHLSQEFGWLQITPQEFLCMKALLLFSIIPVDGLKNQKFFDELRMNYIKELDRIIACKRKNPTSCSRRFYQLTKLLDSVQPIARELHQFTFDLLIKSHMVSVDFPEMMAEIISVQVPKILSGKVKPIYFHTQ

Sequence of Voltage-gated inwardly rectifying potassium channel KCNH2 (Q12809 whole entry): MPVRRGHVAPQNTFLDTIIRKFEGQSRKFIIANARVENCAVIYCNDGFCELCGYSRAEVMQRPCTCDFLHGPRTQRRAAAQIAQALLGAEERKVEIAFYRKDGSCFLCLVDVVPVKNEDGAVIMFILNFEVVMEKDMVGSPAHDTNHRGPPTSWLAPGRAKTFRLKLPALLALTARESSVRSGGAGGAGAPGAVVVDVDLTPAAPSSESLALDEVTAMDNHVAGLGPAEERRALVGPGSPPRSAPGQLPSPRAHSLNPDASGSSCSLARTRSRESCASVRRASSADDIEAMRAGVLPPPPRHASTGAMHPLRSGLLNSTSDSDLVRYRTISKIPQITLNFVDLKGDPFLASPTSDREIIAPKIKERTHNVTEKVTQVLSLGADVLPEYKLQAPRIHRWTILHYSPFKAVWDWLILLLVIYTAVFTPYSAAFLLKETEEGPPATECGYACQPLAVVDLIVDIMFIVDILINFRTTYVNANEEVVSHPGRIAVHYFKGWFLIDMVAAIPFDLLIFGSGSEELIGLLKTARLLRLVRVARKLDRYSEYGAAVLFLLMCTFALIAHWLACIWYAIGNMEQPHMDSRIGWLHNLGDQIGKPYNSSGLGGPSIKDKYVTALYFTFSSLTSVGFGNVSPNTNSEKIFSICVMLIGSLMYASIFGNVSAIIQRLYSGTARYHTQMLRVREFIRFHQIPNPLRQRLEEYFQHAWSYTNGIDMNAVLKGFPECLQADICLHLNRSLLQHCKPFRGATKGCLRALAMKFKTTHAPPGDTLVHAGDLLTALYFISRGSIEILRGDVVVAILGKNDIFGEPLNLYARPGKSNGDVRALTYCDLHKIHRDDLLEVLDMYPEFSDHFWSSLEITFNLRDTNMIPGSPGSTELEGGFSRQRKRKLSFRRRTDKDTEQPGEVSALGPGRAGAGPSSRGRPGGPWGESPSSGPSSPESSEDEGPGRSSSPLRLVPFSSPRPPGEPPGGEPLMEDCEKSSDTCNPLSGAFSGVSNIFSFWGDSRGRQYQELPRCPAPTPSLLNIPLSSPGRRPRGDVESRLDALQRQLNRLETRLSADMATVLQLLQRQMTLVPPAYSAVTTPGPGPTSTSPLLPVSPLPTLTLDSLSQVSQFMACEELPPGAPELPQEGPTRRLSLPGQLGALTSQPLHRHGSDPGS
Sequence of Cytochrome P450 2C19 (P33261 whole entry): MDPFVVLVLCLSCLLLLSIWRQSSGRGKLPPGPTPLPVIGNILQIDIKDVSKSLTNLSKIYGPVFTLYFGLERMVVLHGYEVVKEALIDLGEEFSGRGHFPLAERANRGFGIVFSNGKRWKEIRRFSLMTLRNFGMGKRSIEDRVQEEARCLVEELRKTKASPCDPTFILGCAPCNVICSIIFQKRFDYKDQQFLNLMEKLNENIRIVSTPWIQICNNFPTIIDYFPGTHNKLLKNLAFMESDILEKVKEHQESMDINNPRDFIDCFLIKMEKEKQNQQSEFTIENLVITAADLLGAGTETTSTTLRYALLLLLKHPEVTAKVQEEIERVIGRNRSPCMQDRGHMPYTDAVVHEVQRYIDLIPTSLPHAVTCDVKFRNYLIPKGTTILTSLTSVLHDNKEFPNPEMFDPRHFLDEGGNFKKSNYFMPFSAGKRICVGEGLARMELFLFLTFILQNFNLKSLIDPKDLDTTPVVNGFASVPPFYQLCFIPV
Sequence of Cytochrome P450 2C9 (P11712 whole entry): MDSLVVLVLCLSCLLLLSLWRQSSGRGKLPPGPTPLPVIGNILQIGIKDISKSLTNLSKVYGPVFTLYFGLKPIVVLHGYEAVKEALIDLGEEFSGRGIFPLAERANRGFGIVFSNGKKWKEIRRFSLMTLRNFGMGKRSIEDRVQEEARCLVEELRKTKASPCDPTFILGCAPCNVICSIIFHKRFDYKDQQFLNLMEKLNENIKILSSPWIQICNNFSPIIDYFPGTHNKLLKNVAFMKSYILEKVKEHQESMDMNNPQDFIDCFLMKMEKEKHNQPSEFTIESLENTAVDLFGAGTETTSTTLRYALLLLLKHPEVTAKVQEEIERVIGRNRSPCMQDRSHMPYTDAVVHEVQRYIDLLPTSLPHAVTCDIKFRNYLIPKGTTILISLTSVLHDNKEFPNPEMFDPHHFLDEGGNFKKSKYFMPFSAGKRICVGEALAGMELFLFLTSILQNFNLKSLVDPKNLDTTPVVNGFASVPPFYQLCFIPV

In the case of `NC(=O)N1C(=O)/C(=C(\O)c2cccs2)c2cc(Cl)ccc21` [TENIDAP], the IC50 (in general, the midpoint of a concentration-inhibition curve) in assay [1] worked out at 0.7 µM.

With `O=C(Nc1ccc(Br)cc1)c1cc(Br)cc(Br)c1O` [TRIBROMSALAN], half-maximal inhibition in assay [1] (IC50) was put at 2 µM. In the case of `CN[C@H]1CC[C@@H](c2ccc(Cl)c(Cl)c2)c2ccccc21` [SERTRALINE], in assay [2], the IC50 is 8.32 µM and the Ki (in general, a measure of affinity in units of concentration, obtained from inhibition or displacement) was 6.81 µM. The compound further returned an IC50 in assay [3] of 1 µM.

The compound `Clc1ccc(COC(Cn2ccnc2)c2ccc(Cl)cc2Cl)cc1` (stereo not drawn) [ECONAZOLE] showed an IC50 in assay [3] of 0.04 µM. As to `C[C@H]1C[C@@H]2[C@H]([C@@H](O)C[C@@]3(C)[C@H]2CC[C@]3(O)C(=O)CO)[C@@]2(C)C=CC(=O)C=C12` [METHYLPREDNISOLONE], in assay [4], the 50% inhibitory concentration (IC50) amounted to 26.7 µM and affinity was put at a Ki of 17.8 µM.
